# Measured values: US6737383B1, “Herbicidal oxadiazolidines” (priority 1999, dated 2004)
# Tests used:
# [1] = test system: bedstraw; assay: Test B pre/postemergence bedstraw; type: in vivo, Galium aparine
# Procedure, shortened: (§1)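 Herbicidal effect was estimated by eye on a ten-point control scale after plants spent twelve to sixteen days in a greenhouse following soil or foliar treatment. Foliar sprays targeted plants at one to four leaves; all doses were formulated in a non-phytotoxic solvent with surfactant.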
# [2] = test system: blackgrass; assay: Test B pre/postemergence blackgrass; type: in vivo, Alopecurus myosuroides
# Procedure, shortened: as §1
# [3] = test system: surinam grass; assay: Test B pre/postemergence surinam grass; type: in vivo, Brachiaria decumbens
# Procedure, shortened: as §1
# [4] = test system: cocklebur; assay: Test B pre/postemergence cocklebur; type: in vivo, Xanthium strumarium
# Procedure, shortened: as §1
# [5] = test system: corn; assay: Test B pre/postemergence corn; type: in vivo, Zea mays
# Procedure, shortened: as §1
# [6] = test system: crabgrass; assay: Test B pre/postemergence crabgrass; type: in vivo, Digitaria sanguinalis
# Procedure, shortened: as §1
# [7] = test system: rape; assay: Test B pre/postemergence rape; type: in vivo, Brassica napus
# Procedure, shortened: as §1
# [8] = test system: soybean; assay: Test B pre/postemergence soybean; type: in vivo, Glycine max
# Procedure, shortened: as §1
# [9] = test system: sugar beet; assay: Test B pre/postemergence sugar beet; type: in vivo, Beta vulgaris
# Procedure, shortened: as §1
# [10] = test system: velvetleaf; assay: Test B pre/postemergence velvetleaf; type: in vivo, Abutilon theophrasti
# Procedure, shortened: as §1
# [11] = test system: wheat; assay: Test B pre/postemergence wheat; type: in vivo, Triticum aestivum
# Procedure, shortened: as §1
# [12] = test system: wild oat; assay: Test B pre/postemergence wild oat; type: in vivo, Avena fatua
# Procedure, shortened: as §1
# [13] = test system: purple nutsedge; assay: Test B pre/postemergence purple nutsedge; type: in vivo, Cyperus rotundus
# Procedure, shortened: as §1
# [14] = test system: rice; assay: Test B flood test rice; type: in vivo, Oryza sativa
# Procedure, shortened: (§2)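 Plants were grown to the 2-leaf stage before treatment with test chemical, then held in a greenhouse for twelve to sixteen days. Injury was visually rated against untreated controls on a 0–10 scale, where 0 is no effect and 10 is complete control.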
# [15] = test system: smallflower flatsedge; assay: Test B flood test smallflower flatsedge; type: in vivo, Cyperus difformis
# Procedure, shortened: as §2
# [16] = test system: duck salad; assay: Test B flood test duck salad; type: in vivo, Heteranthera limosa
# Procedure, shortened: as §2
# [17] = test system: bamyardgrass; assay: Test B flood test barnyardgrass; type: in vivo, Echinochloa crus-galli
# Procedure, shortened: as §2
# [18] = Preemergence, Rate 62 g/ha, scale of 0 to 10 where 0 is no effect and 10 is complete control
# [19] = Preemergence, Rate 125 g/ha, 0 is no effect, 10 is complete control
# [20] = Preemergence, Rate 250 g/ha, scale 0 to 10, 0 is no effect, 10 is complete control
# [21] = Preemergence, Rate 500 g/ha, scale of 0 to 10 where 0 is no effect and 10 is complete control
# [22] = Rate 62 g/ha, Postemergence, scale of 0 to 10 where 0 is no effect and 10 is complete control
# [23] = Rate 125 g/ha, Postemergence, scale 0 to 10
# [24] = Rate 500 g/ha, Postemergence, scale 0 to 10
# [25] = Rate 62 g/ha, headed Pre-emergence (flood test species), scale 0 to 10 (0 no effect, 10 complete control)
# [26] = Rate 125 g/ha, Pre-emergence, flood test species, scale 0 to 10 where 0 is no effect and 10 is complete control
# [27] = Rate 250 g/ha, Pre-emergence, flood-test species, scale 0 to 10, 0 is no effect, 10 is complete control
# [28] = Rate 500 g/ha, Pre-emergence, flood test species, scale 0 to 10 (0 no effect, 10 complete control)
structure (smiles),measurement,setting,value
CC(C)N(C(=O)n1oc(=O)n(Cc2ccco2)c1=O)c1ccc(F)cc1 [Compound 207],Bedstraw plant response rating,[1]; [18],0
same,Bedstraw plant response rating (0 to 10 scale),[1]; [19],0
same,Bedstraw plant response rating,[1]; [20],0
same,"Plant response rating, Bedstraw",[1]; [21],0
same,Bedstraw plant response rating,[1]; [22],0
same,Bedstraw plant response rating,[1]; [23],0
same,"Plant response rating (0 to 10; 0 is no effect, 10 is complete control), Bedstraw","[1]; Rate 250 g/ha, Postemergence",5
same,Bedstraw plant response rating,[1]; [24],5
same,Blackgrass plant response rating,[2]; [18],0
same,Blackgrass plant response rating (0 to 10 scale),[2]; [19],0
same,Blackgrass plant response rating,[2]; [20],4
same,"Plant response rating, Blackgrass",[2]; [21],7
same,Blackgrass plant response rating,[2]; [22],0
same,Blackgrass plant response rating,[2]; [23],2
same,"Plant response rating (0 to 10; 0 is no effect, 10 is complete control), Blackgrass","[2]; Rate 250 g/ha, Postemergence",2
same,Blackgrass plant response rating,[2]; [24],4
same,B. signalgrass plant response rating,[3]; [18],0
same,B. signalgrass plant response rating (0 to 10 scale),[3]; [19],0
same,B. signalgrass plant response rating,[3]; [20],0
same,"Plant response rating, B. signalgrass",[3]; [21],0
same,B. signalgrass plant response rating,[3]; [22],0
same,B. signalgrass plant response rating,"[3]; Rate 125 g/ha, Postemergence, scale 0 (no effect) to 10 (complete control)",0
same,"Plant response rating, B. signalgrass","[3]; Rate 250 g/ha, Postemergence, scale 0 to 10, 0 is no effect, 10 is complete control",0
same,B. signalgrass plant response rating,"[3]; Rate 500 g/ha, Postemergence, scale 0 to 10, 0 no effect, 10 complete control",0
same,Cocklebur plant response rating,[4]; [18],0
same,Cocklebur plant response rating (0 to 10 scale),[4]; [19],0
same,Cocklebur plant response rating,[4]; [20],0
same,"Plant response rating, Cocklebur",[4]; [21],0
same,Cocklebur plant response rating,[4]; [22],0
same,Cocklebur plant response rating,[4]; [23],0
same,"Plant response rating (0 to 10; 0 is no effect, 10 is complete control), Cocklebur","[4]; Rate 250 g/ha, Postemergence",0
same,Cocklebur plant response rating,[4]; [24],3
same,Corn plant response rating,[5]; [18],0
same,Corn plant response rating (0 to 10 scale),[5]; [19],0
same,Corn plant response rating,[5]; [20],0
same,"Plant response rating, Corn",[5]; [21],0
same,Corn plant response rating,[5]; [22],0
same,Corn plant response rating,[5]; [23],0
same,"Plant response rating (0 to 10; 0 is no effect, 10 is complete control), Corn","[5]; Rate 250 g/ha, Postemergence",0
same,Corn plant response rating,[5]; [24],0
same,Crabgrass plant response rating,[6]; [18],0
same,Crabgrass plant response rating (0 to 10 scale),[6]; [19],0
same,Crabgrass plant response rating,[6]; [20],3
same,"Plant response rating, Crabgrass",[6]; [21],4
same,Crabgrass plant response rating,[6]; [22],0
same,Crabgrass plant response rating,[6]; [23],0
same,"Plant response rating (0 to 10; 0 is no effect, 10 is complete control), Crabgrass","[6]; Rate 250 g/ha, Postemergence",2
same,Crabgrass plant response rating,[6]; [24],3
same,Rape plant response rating,[7]; [18],0
same,Rape plant response rating (0 to 10 scale),[7]; [19],0
same,Rape plant response rating,[7]; [20],0
same,"Plant response rating, Rape",[7]; [21],2
same,Rape plant response rating,[7]; [22],0
same,Rape plant response rating,[7]; [23],0
same,"Plant response rating (0 to 10; 0 is no effect, 10 is complete control), Rape","[7]; Rate 250 g/ha, Postemergence",0
same,Rape plant response rating,[7]; [24],2
same,Soybean plant response rating,[8]; [18],0
same,Soybean plant response rating (0 to 10 scale),[8]; [19],0
same,Soybean plant response rating,[8]; [20],0
same,"Plant response rating, Soybean",[8]; [21],0
same,Soybean plant response rating,[8]; [22],1
same,Soybean plant response rating,[8]; [23],2
same,"Plant response rating (0 to 10; 0 is no effect, 10 is complete control), Soybean","[8]; Rate 250 g/ha, Postemergence",2
same,Soybean plant response rating,[8]; [24],5
same,Sugarbeets plant response rating,[9]; [18],0
same,Sugarbeets plant response rating (0 to 10 scale),[9]; [19],0
same,Sugarbeets plant response rating,[9]; [20],0
same,"Plant response rating, Sugarbeets",[9]; [21],0
same,Sugarbeets plant response rating,[9]; [22],0
same,Sugarbeets plant response rating,[9]; [23],0
same,"Plant response rating (0 to 10; 0 is no effect, 10 is complete control), Sugarbeets","[9]; Rate 250 g/ha, Postemergence",0
same,Sugarbeets plant response rating,[9]; [24],2
same,Velvetleaf plant response rating,[10]; [18],0
same,Velvetleaf plant response rating,[10]; [20],0
same,"Plant response rating, Velvetleaf",[10]; [21],5
same,Velvetleaf plant response rating,[10]; [22],0
same,Velvetleaf plant response rating,[10]; [23],1
same,"Plant response rating (0 to 10; 0 is no effect, 10 is complete control), Velvetleaf","[10]; Rate 250 g/ha, Postemergence",1
same,Wheat plant response rating,[11]; [18],0
same,Wheat plant response rating,[11]; [20],0
same,"Plant response rating, Wheat",[11]; [21],0
same,Wheat plant response rating,[11]; [22],0
same,Wheat plant response rating,[11]; [23],0
same,"Plant response rating (0 to 10; 0 is no effect, 10 is complete control), Wheat","[11]; Rate 250 g/ha, Postemergence",0
same,Wild oats plant response rating,[12]; [18],0
same,Wild oats plant response rating,[12]; [20],0
same,"Plant response rating, Wild oats",[12]; [21],0
same,Wild oats plant response rating,[12]; [22],0
same,Wild oats plant response rating,[12]; [23],0
same,"Plant response rating (0 to 10; 0 is no effect, 10 is complete control), Wild oats","[12]; Rate 250 g/ha, Postemergence",0
same,Nutsedge plant response rating,[13]; [18],0
same,Nutsedge plant response rating (0 to 10 scale),[13]; [19],0
same,Nutsedge plant response rating,[13]; [20],0
same,"Plant response rating, Nutsedge",[13]; [21],0
same,Nutsedge plant response rating,[13]; [22],0
same,Nutsedge plant response rating,[13]; [23],0
same,"Plant response rating (0 to 10; 0 is no effect, 10 is complete control), Nutsedge","[13]; Rate 250 g/ha, Postemergence",0
same,Nutsedge plant response rating,[13]; [24],0
same,Rice plant response rating,[14]; [25],0
same,Rice plant response rating,[14]; [26],0
same,Rice plant response rating,[14]; [27],0
same,Rice plant response rating,[14]; [28],0
same,S. Flatsedge plant response rating,[15]; [25],0
same,S. Flatsedge plant response rating,[15]; [26],0
same,S. Flatsedge plant response rating,[15]; [27],0
same,S. Flatsedge plant response rating,[15]; [28],0
same,Ducksalad plant response rating,[16]; [25],0
same,Ducksalad plant response rating,[16]; [26],0
same,Ducksalad plant response rating,[16]; [27],0
same,Ducksalad plant response rating,[16]; [28],2
same,Barnyardgrass plant response rating,[17]; [25],0
same,Barnyardgrass plant response rating,[17]; [26],0
same,Barnyardgrass plant response rating,[17]; [27],2
same,Barnyardgrass plant response rating,[17]; [28],7
